Results taken from US20200197341A1, “IMMUNMODULATION FOR PREVENTION OF POOR HEALING OF MUSCULOSKELETAL INJURIES IN COMPROMISED PATIENTS” (CHARITÉ UNIVERSITÄTSMEDIZIN BERLIN, priority 2017, published 2020).
Entries after “also recorded” stand apart in the source; their conditions may differ.

Columns and labels:
femur mouse osteotomies = test: Mouse femur osteotomy with fibrin release system, μCT of newly formed bone; assay type: in vivo
Protocol: Mouse experiments were performed with 12-week-old C57BL/6 females (n=6, each sample type) (Charles River Laboratories) according to the policies and principles established by the Animal Welfare Act, the National Institutes of Health Guide for the Care and Use of Laboratory Animals, and the National Animal Welfare Guidelines. All animal experiments were approved by the local legal representative. Animals were kept under obligatory hygiene standards that were monitored according to the FELASA standards.
The osteotomy was performed on the left femur. After shaving and disinfecting the operation area of isoflurane-anesthetized animals, a lateral longitudinal incision of the skin (2 mm) from knee to hip was performed for a mid-diaphyseal approach to the femur. The femur was exposed by blunt preparation of Musculus vastus lateralis and Muscculus biceps femoris, carefully sparing the sciatic nerve. Serial drilling for pin placement (0.45 mm diameter) through the connector bar of the external fixator (MouseExFix, RlSystem, Davos, Switzerland) was performed, thus positioning the external fixator laterally in parallel to the femur. A 0.70 mm osteotomy was performed between the middle pins using a Gigli wire saw (RISystem, Davos, Switzerland). […]
The newly formed mineralized bone tissues were analyzed using high-resolution micro computed tomography (μCT). […]

[1] = test system: drill hole in the diaphyseal and metaphyseal bone; test: Sheep drill hole bone healing model, μCT evaluation of bone formation; assay type: in vivo; settings: after 3 and 9 weeks, Iloprost in collagen scaffold (burst release), applied immediately, 1 ml Ilomedin per two scaffolds
From the text: Prior publications, e.g. US 20150164853 A1, stated that immediate use of Iloprost locally to enhance bone healing is beneficial. To investigate this a high dose of Iloprost was used in a sheep bone healing model where the agent was applied in a collagen scaffold, which has a burst-release dynamic.
Bone formation has been analyzed in a drill hole model (Establishment of a preclinical ovine screening model for the investigation of bone tissue engineering strategies in cancellous and cortical bone defects. Pobloth A M, Johnson K A, Schell H, Kolarczik N, Wulsten D, Duda G N, Schmidt-Bleek K. BMC Musculoskelet Disord. 2016 Mar. 1; 17:111.). The empty control group and the collagen only group were used as negative controls while the autologous spongiosa group, the current gold standard in bone therapy, was used as a positive control. In the Ilomedin group a supraphysiological dosis of 1 ml Iloprost (Ilomedin, […] Infusionslosung, Bayer Vital GmbH, Leverkusen, Deutschland) per two scaffolds was used.

CC#CCC(C)[C@H](O)/C=C/[C@@H]1[C@H]2C/C(=C/CCCC(=O)O)C[C@H]2C[C@H]1O (stereo partly drawn) [Iloprost] was tested, and the “newly formed bone volume (BV)” value (femur mouse osteotomies; mouse femur osteotomy, 21 days healing, fibrin release system with 3 μM Iloprost in core, median, N=6, p=0.016 vs vehicle) was 1.347 mm^3, the “volumes of newly formed bone vs empty vehicle control (μCT)” value (femur mouse osteotomies; mouse, after 21 days of regeneration, Iloprost loaded release system) was “significantly increased volumes of newly formed bone” and the “bone formation in a drill hole (μCT)” value [1] was “No differences between the collagen group and the collagen Iloprost loaded group; also recorded: no enhanced bone formation was detectable”.
